Assay results reported in patent US7700136B2, “Scutellaria barbata extract for the treatment of cancer” (priority 2005, dated 2010).

System: subcutaneous cancer xenografts
Format: in vivo, mice
Conditions: oral; BZL101 0.5 ml gavage every third day; cyclophosphamide 25 mg/Kg/day in drinking water; FIG. 6
Procedure: As in Example 1, above, 10^5 cells were administered to each animal subcutaneously on Day 0. The animals were divided into four groups. The control group received only normal drinking water. The cyclophosphamide only group received 25 mg/Kg/day of cyclophosphamide in their drinking water.

For `O=P1(N(CCCl)CCCl)NCCCO1` (stereo not shown) [cyclophosphamide], the tumor growth inhibition was “inhibited tumor growth as compared to the control”.
